Experimental data as given in patent publication US20220117938A1, “COMBINATON THERAPY WITH A DON PRODRUG AND AN IMMUNE CHECKPOINT INHIBITOR” (DRACEN PHARMACEUTICALS, INC., priority 2019, published 2022).

System: Ninety four (94) cell lines and PBMC
Experiment: Cell viability assay, SRB staining, 94 cell lines and PBMC (Example 7, Experiment 2)
Assay type: cell-based
Description: Ninety four (94) cell lines were seeded at a density varying from 500 to 7000 cells/well depending on their growth characteristics. PBMC were seeded at the density 50,000-100,000 cells/well. Cells were incubated for 48 h prior to compound treatment. Compound 1 and DON were evaluated at a concertation range of 1 nM up to 100 μM. Compound 1 dilutions in DMSO and DON dilutions in PBS were performed in 96-well 0.5 mL plates (Greiner Bio-One, Germany). Compounds were then diluted 1:100 in RPMI medium. […] of cells were treated by mixing with 10 μL of the compound-containing media (resulting in a final DMSO concentration of 0.1%). The cells were allowed to grow at 37° C. for 120 h. Cells were fixed to the surface by addition of 10% TCA (for adherent growing cells) or 50% TCA (for semi-adherent growing cells or cells growing in suspension). After an hour of incubation at 4° C., plates were washed twice with 400 μL of deionized water and dried. Cells were then stained with 100 μL of 0.04% wt/v SRB. The plates were incubated at room temperature for at least 30 min and washed six times with 1% acetic acid to remove unbound stain. The plates were left to dry at room temperature and bound SRB was solubilized with 100 μL of 10 mM Tris base. Optical density was measured at 492, 520 and 560 nm using a Deelux-LED96 plate reader (Deelux Labortechnik GmbH, Germany).
Cell lines were purchased directly from the ATCC, NCI, CLS, and DSMZ cell line collections. A master bank and working aliquots were prepared. Cells used for the study had undergone less than 20 passages. To rule out potential contamination or wrong assignment, all cell lines were tested by STR analysis. Absence of mycoplasma contamination was confirmed for all cell lines used in the studies.
The cell lines were grown in the media recommended by the suppliers in the presence of 100 U/mL penicillin and 100 μg/mL streptomycin supplied with 10% FCS (PAA, Germany). RPMI 1640, DMEM, and MEM Earle's medium were from PAA (Coelbe, Germany), supplements 2 mM L-glutamine, 1 mM Na-pyruvate and 1% NEAA were from PAA (Coelbe, Germany), 2.5% horse serum, hydrocortisone, transferin, beta-estradiol, selenite and 1 U/mL insulin from Sigma-Aldrich (Munich, Germany). RPMI medium was used for culturing the following cell lines: 5637, 22RV1, 7860, A2780, A431, A549, ACHN, ASPC1, BT20, BXPC3, CAKI1, CLS439, COLO205, COLO678, DLD1, DU145, EFO21, EJ28, HCT15, HS578T, IGROV1, JAR, LOVO, MCF7, MDA MB231, MDA MB435, MDA MB436, MDA MB468, MHHES1, MT3, NCI H292, NCI H358M, NCI H460, NCIH82, OVCAR3, OVCAR4, PANC 1005 (addition of insulin), PBMC, PC3, RDES, SF268, SF295, SKBR3, SK MEL28, SKMEL5, SKOV3, SW620, U2OS, UMUC3, and U031.
DMEM medium was used to culture A204, A375, A673, C33A, CASKI, HCT116, HEPG2, HS729, HT29, J82, MG63, MIAPACA2 (addition of horse serum), PANC1, PLCPRF5, RD, SAOS2, SKLMS1, SKNAS, SNB75, T24, and TE671.
MEM Earle's medium was used for CACO2, CALU6, HEK293, HELA, HT1080, IMR90, JEG3, JIMT1, SKHEP1, SKNSH, and U87MG. Cell seeding conditions were optimized for each cell line. The cell seeding density varied from 500 to 7000 cells/well depending on their growth characteristics. Peripheral blood mononuclear cells (PBMC) were freshly isolated from whole blood of an anonymous donor through density gradient centrifugation using Ficoll solution (d=1.077). In short, blood was diluted 1:1 with PBS and carefully placed on the Ficoll. After centrifugation 1000×g for 15 min (braking rate 0), the ring containing mainly leucocytes was collected in PBS followed by three times washing with PBS to reduce the platelets. PBMC were seeded at the density 50,000-100,000 cells/well. Cells were grown in 5% CO2 atmosphere in a NB-203XXL incubator (N-BIOTEK Inc., Korea).
Ninety-four cell lines were tested in parallel. Cell growth and treatment were performed in 96 well microtitre plates CELLSTAR® (Greiner Bio-One, Germany). […]

[1] = Homo sapiens, 22Rv1, 22RV1, prostate
[2] = Homo sapiens, 786-0, 786O, kidney
[3] = Homo sapiens, A204, A204, muscle
[4] = Homo sapiens, A673, A673, muscle
[5] = Homo sapiens, A2780, A2780, ovary
[6] = Homo sapiens, A-375, A375, skin
[7] = Homo sapiens, A-431, A431, skin
[8] = Homo sapiens, ASPC1, ASPC1, pancreas
[9] = Homo sapiens, BT-20, BT20, breast
[10] = Homo sapiens, C-33-A, C33A, endometrial
[11] = Homo sapiens, CAKI-1, CAKI1, kidney
[12] = Homo sapiens, COLO 205, COLO205, colon
[13] = Homo sapiens, COLO-678, COLO678, colon
[14] = Homo sapiens, Ca-Ski, CASKI, endometrial
[15] = Homo sapiens, Caco-2, CACO2, colon
[16] = Homo sapiens, Calu-6, CALU6, lung
[17] = Homo sapiens, DLD-1, DLD1, colon
[18] = Homo sapiens, DU-145, DU145, prostate
[19] = Homo sapiens, EFO-21, EFO21, ovary
[20] = Homo sapiens, EJ-28, EJ28, bladder
[21] = Homo sapiens, Granta-519, GRANTA-519, hematological
[22] = Homo sapiens, HCT-15, HCT15, colon
[23] = Homo sapiens, HCT-116, HCT116, colon
[24] = Homo sapiens, HEK293, HEK293, kidney
[25] = Homo sapiens, HL-60, HL-60, hematological
[26] = Homo sapiens, HT-29, HT29, colon
[27] = Homo sapiens, HT-1080, HT1080, connective tissue
[28] = Homo sapiens, HeLa, endometrial
[29] = Homo sapiens, HepG2, HEPG2, liver
[30] = Homo sapiens, IGROV-1, IGROV1, ovary
[31] = Homo sapiens, JEG-3, JEG3, placenta
[32] = Homo sapiens, JIMT-1, JIMT1, breast
[33] = Homo sapiens, K562, K-562, hematological
[34] = Homo sapiens, Kasumi 1, KASUMI-1, hematological
[35] = Homo sapiens, L-363, L-363, hematological
[36] = Homo sapiens, MCF7, MCF7, breast
[37] = Homo sapiens, MDA-MB-231, MDAMB231, breast
[38] = Homo sapiens, MDA-MB-435, MDAMB435, skin

`[N-]=[N+]=CC(=O)CC[C@H](N)C(=O)O` [DON, 6-Diazo-5-oxo-L-norleucine, reference compound] gave an IC50 (5637, bladder) of 0.881 µM, an IC50 (CLS439, bladder) of 7.82 µM and a GI50 [1] of 0.981 µM. For the same compound, the IC50 [1] was 1.04 µM, the GI50 [2] was 2.39 µM and the IC50 [2] was 2.93 µM. For the same compound, the GI50 [3] was 4.99 µM, the IC50 [3] was 17 µM and the GI50 (Homo sapiens, A549, A549, lung) was 4.05 µM. It also gave an IC50 (Homo sapiens, A549, A549, lung) of 4.49 µM, a GI50 [4] of 1.95 µM and an IC50 [4] of 2.2 µM. For the same compound, the GI50 [5] was 3.65 µM, the IC50 [5] was 3.9 µM and the GI50 [6] was 3.15 µM. It also gave an IC50 [6] of 3.33 µM, a GI50 [7] of 6.5 µM and an IC50 [7] of 8.52 µM. The GI50 (Homo sapiens, ACHN, kidney) was 5.34 µM, the IC50 (Homo sapiens, ACHN, kidney) was 6.34 µM and the GI50 [8] was 3.92 µM. It also gave an IC50 [8] of 5.58 µM, a GI50 [9] of 16.8 µM and an IC50 [9] of 51.1 µM. For the same compound, the GI50 (Homo sapiens, BXPC-3, BXPC3, pancreas) was 1.45 µM, the GI50 [10] was 6.48 µM and the IC50 [10] was 7.04 µM. For the same compound, the GI50 [11] was 1.16 µM, the IC50 [11] was 1.62 µM and the GI50 [12] was 1.32 µM. It also gave an IC50 [12] of 2.01 µM, a GI50 [13] of 58.9 µM and an IC50 [13] of 152 µM. For the same compound, the GI50 [14] was 5.49 µM, the IC50 [14] was 6.51 µM and the GI50 [15] was 11.2 µM. The IC50 [15] was 18.6 µM, the GI50 [16] was 6.05 µM and the IC50 [16] was 6.97 µM. The GI50 [17] was 0.906 µM, the IC50 [17] was 1.02 µM and the GI50 [18] was 5.24 µM. For the same compound, the IC50 [18] was 6.16 µM, the GI50 [19] was 6.32 µM and the IC50 [19] was 14.6 µM. The GI50 [20] was 4.19 µM, the IC50 [20] was 4.89 µM and the GI50 [21] was 0.779 µM. It also gave an IC50 [21] of 0.812 µM, a GI50 [22] of 1.13 µM and an IC50 [22] of 1.3 µM. For the same compound, the GI50 [23] was 2.06 µM, the IC50 [23] was 2.1 µM and the GI50 [24] was 10.6 µM. It also gave an IC50 [24] of 15.2 µM, a GI50 [25] of 1.56 µM and an IC50 [25] of 1.6 µM. It also gave a GI50 [26] of 2.89 µM, an IC50 [26] of 3.41 µM and a GI50 [27] of 0.666 µM. For the same compound, the IC50 [27] was 0.795 µM, the GI50 [28] was 8.17 µM and the IC50 [28] was 9.13 µM. It also gave a GI50 [29] of 7.3 µM, an IC50 [29] of 8.97 µM and a GI50 (Homo sapiens, Hs-578T, HS578T, breast) of 25.1 µM. It also gave a GI50 [30] of 6.99 µM, an IC50 [30] of 10.1 µM and a GI50 (Homo sapiens, IMR-90, IMR90, lung) of 11.8 µM. It also gave a GI50 [31] of 5.79 µM, an IC50 [31] of 6.64 µM and a GI50 [32] of 11.2 µM. The IC50 [32] was 26.8 µM, the GI50 [33] was 1.06 µM and the IC50 [33] was 1.17 µM. For the same compound, the GI50 [34] was 5.17 µM, the IC50 [34] was 12.7 µM and the GI50 [35] was 0.343 µM. For the same compound, the IC50 [35] was 0.522 µM, the GI50 (Homo sapiens, LoVo, colon) was 4.36 µM and the IC50 (Homo sapiens, LoVo, colon) was 4.66 µM. For the same compound, the GI50 [36] was 2.09 µM, the IC50 [36] was 6.07 µM and the GI50 [37] was 8.37 µM. The IC50 [37] was 13.8 µM, the GI50 [38] was 2.48 µM and the IC50 [38] was 2.66 µM. For the same compound, the GI50 (Homo sapiens, MDA-MB-436, MDAMB436, breast) was 13.3 µM.
